Measurements reported in patent US20240091306A1 (Dompe' Farmaceutici SPA, priority 2020, published 2024).

What was measured:
HUVECs [1] = assay: Angiogenic activity assay on BME-coated wells, stressed HUVECs; type: cell-based, human
Description: (§1) Low passage HUVECs were grown under stressed (serum starved; 0.5% FBS) conditions for 16 h in endothelial basal medium (EBM) and then harvested and resuspended in complete medium containing 10% FBS.
(§2) Cells were seeded (5×10^4 cells per well) in wells coated with growth factor-reduced Cultrex basement membrane extract (BME; Trevigen Gaithersburg, MD, USA) and left untreated (NT) or treated with 10 ng/ml of GST, p24, p17 or each p17-derived peptide F1 to F8.
Data are the means±SD of three independent experiments with similar results.
Statistical analysis was performed by one-way ANOVA and the Bonferroni post-test was used to compare data (***P<0.001).

HAECs = assay: Angiogenic activity assay on HAECs; type: cell-based, human; conditions: HAECs (aorta)
Description: (§3) Human aortic endothelial cells (HAECs) and Human lung microvascular endothelial cells (HMVEC-Ls) were purchased from Clonetics (San Diego, CA, USA) and cultured in EGM-2MV (Lonza) containing 10% (vol/vol) FBS.
as §1, §2
(§4) Similar results were obtained by using human ECs derived from different origin, such as aorta (HAECs), lung (HMVEC-Ls) and lymph node (LN-LECs) (FIGS. 3, 4 and 5, respectively).

HMVEC-Ls = assay: Angiogenic activity assay on HMVEC-Ls; type: cell-based, human; conditions: HMVEC-Ls (lung)
Description: as §3, §1, §2, §4

LN-LECs = assay: Angiogenic activity assay on LN-LECs; type: cell-based, human; conditions: LN-LECs (lymph node)
Description: Human primary lymph node-derived endothelial cells (LN-LECs) have been developed and characterized as described in Norder et al, FASEB J, 2012; 26:2835-2846.
LN-LECs were cultured in EGM (Lonza) containing 10% FBS and supplemented with VEGF-C (25 ng/ml) (Reliatech, Wolfenbuettel, Germany).
as §1, §2, §4

HUVECs [2] = assay: Wound-healing assay (EC migration); type: cell-based, human; conditions: 10 ng/ml; for effect on HUVEC migration: 12 h; for healing: after 12 h of culture
Description: The involvement of peptide F2 and F3 in promoting EC migration was evaluated by performing a wound healing assay.
HUVECs were plated on 24-well plates (10^5 cells per well) in complete medium containing 10% FBS. Confluent monolayers were nutrient starved for 16 h and then scratched using a 200 μI pipette tip. After being washed, cells were left untreated or treated with 10 ng/ml of GST, p24, p17, or each p17-derived peptide F1 to F8.

aortic rings = assay: Rat aortic ring assay (ex vivo); type: cell-based, Sprague-Dawley rats; conditions: 10 days
Description: Briefly, the dorsal aorta was excised from 6-wk-old Sprague-Dawley rats. Rings, 1-mm thick, were embedded in collagen gel and then incubated with serum-free EBM containing PBS, peptide F2 (10 ng/ml), peptide F3 (10 ng/ml), or FGF-2 (50 ng/ml) (Thermo Fisher Scientific, Rodano, Italy). The plates were incubated for 10 days and angiogenesis was quantified by counting the number of microvessels originating from aortic rings.

[3] = tested on: chick chorioallantoic membrane (CAM); assay: Chick chorioallantoic membrane (CAM) assay; type: in vivo, White Leghorn chicken; conditions: 100 ng on gelatin sponge, day 12
Description: The vasculogenic activity of peptide F2 and F3 was further characterized by in vivo experiments by using the chick chorioallantoic membrane (CAM) assay.
Fertilized White Leghorn chicken eggs (30 per group) were incubated at 37° C. at constant humidity. On day 3, a square window was opened in the shell, and 2-3 ml of albumin was removed to allow detachment of the developing CAM. The window was sealed with a glass, and the eggs were returned to the incubator. On day 8, eggs were treated with 1 mm 3 sterilized gelatin sponges (Gelfoam; Upjohn, Kalamazoo, MI, USA) placed on top of the growing CAM, as described in Ribatti D et al, Nat Protoc, 2006; 1:85-91, and loaded with 1 μl of PBS (negative control), 1 μl of PBS containing 100 ng of peptide F2 or F3. CAMs were examined daily until day 12 and photographed in ovo with a stereomicroscope equipped with a camera and image analyzer system (Olympus, Hamburg, Germany). At day 12, the angiogenic response was evaluated by the image analyzer system and counted as the number of vessels converging toward the sponge.

HUVECs [4] = assay: Angiogenic activity assay with CXCR1 and CXCR2 inhibition; type: cell-based, human; conditions: stressed HUVECs, peptide 10 ng/ml, preincubation 1 hour with 2.5 μg/ml mAb
Description: as §1
Cells were seeded (5×10^4 cells per well) in wells coated with growth factor-reduced Cultrex basement membrane extract (BME; Trevigen Gaithersburg, MD, USA) and left untreated (NT) or treated with 10 ng/ml of each p17-derived peptide F1 or F2, after preincubation for 1 hour at 37° C. with 2.5 μg/ml of a control isotype-matched mAb (Ctrl mAb), a neutralizing mAb to CXCR1 and/or a neutralizing mAb to CXCR2.

HUVECs [5] = assay: Angiogenic activity assay under normal and stressed condition; type: cell-based, human; conditions: 10 ng/ml
Description: Low passage HUVECs were grown under normal (10% FBS) or stressed (serum starved; 0.5% FBS) conditions for 16 h in endothelial basal medium (EBM) and then harvested and resuspended in complete medium containing 10% FBS. […]
An EPO-derived 11 amino acids-long peptide (EPO peptide—SEQ ID No. 10) and a F3-derived 16 amino acids-long peptide (F3S—SEQ ID No. 9) were synthetized and tested at 10 ng/ml for their angiogenic activity under the same procedure of Example 7.

endothelial cells = assay: Involvement of autophagy-based pathway in angiogenic activity; type: cell-based
[6] = tested on: full-thickness excisional skin wounds; assay: In vivo wound-healing assay in diabetic mice; design: species or system spontaneously diabetic (db/db) mice; conditions: db/db mice, topical daily, 1.0 μg/50 μL days 0 to 7 and 10 μg/50 μL days 8 to 13; days 8 to 14 (p≤0.035)
Excerpt: Patients with diabetes are prone to impaired wound healing, with foot ulceration being particularly prevalent. This delay in wound healing also extends to animal models of diabetes. The impact of the EPO peptide (DSRVLERYLLE, corresponding to SEQ ID No. 10) on wound healing was therefore investigated by in vivo experiments on spontaneously diabetic (db/db) mice (i.e., BKS.Cg-m Dock7^m+/+Lepr^db/J mice).
In this study, the healing of full-thickness excisional skin wounds on the flanks of diabetic mice in receipt of the EPO peptide was compared to that of wounds in receipt of negative control (Water for Injection) treatment. The overall wound closure (i.e. the reduction in open wound area) was determined over time by taking scaled wound images of each wound at each assessment point.
EPO Peptide (DFL24435) was solubilized at 200 μg/mL (10 μg per 50 μL) in sterile water for injection, aliquoted into 100 μL volumes, stored at −20° C., defrosted on the day of use and diluted as necessary.
The animals were divided in a control group, that was treated with water for injection, and a EPO peptide group, that was treated with the peptide. Treatment was carried out once a day on post-wounding days 0 to 13 and the animals were sacrificed on day 14. […]

B cell = conditions: He W et al. 2019; cited from earlier work
[7] = He W et al. 2019; cited from earlier work
CXCR1 = CXCR1 (Homo sapiens, UniProt P25024); conditions: He W et al. 2019; cited from earlier work
CXCR2 = CXCR2 (Homo sapiens, UniProt P25025); conditions: He W et al. 2019; cited from earlier work
[8] = HUVECs stressed (serum starved; 0.5% FBS) 16 h, 10 ng/ml
[9] = normal (10% FBS) culture conditions
[10] = stressed (serum starved; 0.5% FBS) conditions
[11] = HUVECs, as example 2, 10 ng of the peptide

Sequence of CXCR1 (P25024 whole entry): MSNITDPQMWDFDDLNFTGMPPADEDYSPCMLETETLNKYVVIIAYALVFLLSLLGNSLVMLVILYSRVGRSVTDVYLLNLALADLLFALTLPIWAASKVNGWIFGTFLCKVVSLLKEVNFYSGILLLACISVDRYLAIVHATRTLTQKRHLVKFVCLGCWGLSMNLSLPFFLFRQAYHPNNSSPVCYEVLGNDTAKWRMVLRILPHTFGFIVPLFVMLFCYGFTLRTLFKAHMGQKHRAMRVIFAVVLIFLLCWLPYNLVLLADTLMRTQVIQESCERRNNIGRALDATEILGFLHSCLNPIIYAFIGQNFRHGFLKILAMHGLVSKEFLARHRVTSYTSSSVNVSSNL
Sequence of CXCR2 (P25025 whole entry): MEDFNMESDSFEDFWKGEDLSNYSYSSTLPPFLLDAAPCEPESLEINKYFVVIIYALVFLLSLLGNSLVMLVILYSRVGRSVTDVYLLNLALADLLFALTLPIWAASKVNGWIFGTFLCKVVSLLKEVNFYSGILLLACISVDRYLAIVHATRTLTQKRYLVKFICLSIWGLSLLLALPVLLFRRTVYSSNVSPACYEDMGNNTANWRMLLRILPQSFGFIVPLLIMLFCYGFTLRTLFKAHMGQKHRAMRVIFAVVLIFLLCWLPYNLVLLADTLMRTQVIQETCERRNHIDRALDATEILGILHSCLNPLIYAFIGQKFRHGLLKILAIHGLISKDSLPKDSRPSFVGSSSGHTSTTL

**Q.** With “KHIVWASRELERFAVNPGLL [Peptide F3, p17-derived 20 amino acid peptide]” as the substance, how does the angiogenic activity (HUVECs [1]; [8]) read?
**A.** The angiogenic activity was “endowed with angiogenic activity”.

**Q.** What about the angiogenic activity (HAECs) of the same substance?
**A.** The angiogenic activity was “potent angiogenic activity”.

**Q.** And the angiogenic activity (HMVEC-Ls)?
**A.** Its angiogenic activity is “potent angiogenic activity”.

**Q.** What about the angiogenic activity (LN-LECs) of the same substance?
**A.** The angiogenic activity was “potent angiogenic activity”.

**Q.** And the “effect on HUVEC migration” value (HUVECs [2])?
**A.** Its value is “comparable to that exerted by p17”.

**Q.** What about the healing (HUVECs [2]) of the same substance?
**A.** Its healing is ~100%.

**Q.** And the “number of microvessels originating from aortic rings” value (“number of microvessels originating” below) (aortic rings; 10 ng/ml)?
**A.** The value was 46±8.

**Q.** What about the “mean number of vessels converging toward the sponge” value [3] of the same substance?
**A.** Its value is 30±3.

**Q.** And the “effect of neutralizing mAb to CXCR1 and CXCR2 on peptide-induced angiogenesis” value (HUVECs [4])?
**A.** Its value is “did not impair”.

**Q.** And the angiogenic activity (HUVECs [5]; [9])?
**A.** The angiogenic activity was “promote angiogenesis”.

**Q.** What about the angiogenic activity (HUVECs [5]; [10]) of the same substance?
**A.** Its angiogenic activity is “potent angiogenic activity”.

**Q.** And the “involvement of autophagy-based pathway in angiogenic activity” value (endothelial cells)?
**A.** Its value is “independent from autophagy”.

**Q.** For AANELDRF [SIVcpz-derived peptide], which angiogenic activity (HUVECs [1]; [11]) is on record?
**A.** Its angiogenic activity is “able to significantly promote angiogenesis”.

**Q.** With “DSRVLERYLLE [EPO peptide, EPO-derived 11 amino acids-long peptide]” as the substance, how does the angiogenic activity (HUVECs [5]; [9]) read?
**A.** Its angiogenic activity is “potent angiogenic activity”.

**Q.** And the angiogenic activity (HUVECs [5]; [10])?
**A.** The angiogenic activity was “potent angiogenic activity”.

**Q.** And the “wound closure (reduction in open wound area) compared to vehicle” value [6]?
**A.** Its value is “significantly increased closure”.

**Q.** Which angiogenic activity (HUVECs [1]; [11]) does the source give for ASRELERFACNPELLE [peptide gor] here?
**A.** The angiogenic activity was “able to significantly promote angiogenesis”.

**Q.** For “GARASVLSGGELDRWEKIRL [Peptide F1, p17-derived peptide, aminoacids 2 to 21 of p17]”, which “B cell growth promoting activity” value (B cell) is on record?
**A.** The value was “endowed with cell growth promoting activity”.

**Q.** With ASRELERFACNPGLME [peptide cpz] as the substance, how does the angiogenic activity (HUVECs [1]; [11]) read?
**A.** Its angiogenic activity is “able to significantly promote angiogenesis”.

**Q.** With ASRELERFLLE as the substance, how does the angiogenic activity (HUVECs [1]; [11]) read?
**A.** The angiogenic activity was “able to significantly promote angiogenesis”.

**Q.** Which angiogenic activity (HUVECs [1]; [8]) does the source give for EKIRLRPGGKKKYKLKHIVW [Peptide F2] here?
**A.** Its angiogenic activity is “endowed with angiogenic activity”.

**Q.** What about the angiogenic activity (HAECs) of the same substance?
**A.** The angiogenic activity was “potent angiogenic activity”.

**Q.** And the angiogenic activity (HMVEC-Ls)?
**A.** Its angiogenic activity is “potent angiogenic activity”.

**Q.** And the angiogenic activity (LN-LECs)?
**A.** Its angiogenic activity is “potent angiogenic activity”.

**Q.** What about the “effect on HUVEC migration” value (HUVECs [2]) of the same substance?
**A.** The value was “comparable to that exerted by p17”.

**Q.** And the healing (HUVECs [2])?
**A.** The healing was ~100%.

**Q.** And the “number of microvessels originating” value (aortic rings; 10 ng/ml)?
**A.** Its value is 55±5.

**Q.** And the “mean number of vessels converging toward the sponge” value [3]?
**A.** The value was 27±4.

**Q.** And the “effect of neutralizing mAb to CXCR1 and CXCR2 on peptide-induced angiogenesis” value (HUVECs [4])?
**A.** Its value is “inhibitory”.

**Q.** And the angiogenic activity (HUVECs [5]; [9])?
**A.** Its angiogenic activity is “promoting angiogenesis under stress condition only”.

**Q.** And the angiogenic activity (HUVECs [5]; [10])?
**A.** The angiogenic activity was “potent angiogenic activity”.

**Q.** What about the “involvement of autophagy-based pathway in angiogenic activity” value (endothelial cells) of the same substance?
**A.** Its value is “involves an autophagy-based pathway”.

**Q.** And the binding to heparin [7]?
**A.** Its binding to heparin is “capable to bind”.

**Q.** What about the “binding to CXCR1 receptor” value (CXCR1) of the same substance?
**A.** The value was “capable to bind”.

**Q.** What about the “binding to CXCR2 receptor” value (CXCR2) of the same substance?
**A.** The value was “capable to bind”.

**Q.** Which angiogenic activity (HUVECs [5]; [9]) does the source give for “ASRELERFAVNPGLLE [Peptide F3S, F3-derived 16 amino acids-long peptide]” here?
**A.** The angiogenic activity was “potent angiogenic activity”.

**Q.** What about the angiogenic activity (HUVECs [5]; [10]) of the same substance?
**A.** The angiogenic activity was “potent angiogenic activity”.

**Q.** For ASRELERF (ASRELERFLLE), which angiogenic activity (HUVECs [1]; [11]) is on record?
**A.** The angiogenic activity was “able to significantly promote angiogenesis”.

**Q.** Which “number of microvessels originating” value (aortic rings; 50 ng/ml) does the source give for “FGF-2: FGF-2 (Thermo Fisher Scientific), positive control in aortic ring assay [reference compound]” here?
**A.** Its value is 84±6.

**Q.** For “glutathione S-transferase [GST, reference compound]”, which angiogenic activity (HUVECs [1]; [8]) is on record?
**A.** The angiogenic activity was “did not induce any pro-angiogenic activity”.

**Q.** And the “effect on HUVEC migration” value (HUVECs [2])?
**A.** The value was “did not exert any effect”.

**Q.** Which angiogenic activity (HUVECs [1]; [11]) does the source give for AANELDRFLLE [SIVcpz-derived peptide] here?
**A.** Its angiogenic activity is “able to significantly promote angiogenesis”.
